Assays:
[1] = test system: cultured cells; experiment: Transfection of cultured cells, luciferase activity; format: cell-based
Excerpt: The gene delivery ability of substituted aminoethanols with long chain hydrocarbon (aliphatic) substitutients was studied by transfection of cultured cells and then in vivo by intravenous injection (Table 2 and 3). The substituted aminoethanols have two hydrophilic polar heads connected with one hydrophobic body, which was named bihead lipids. Bihead lipids are proposed to form a monolayer membrane.

[2] = test system: CD-1 mice; experiment: Luciferase expression in organs after intravenous injection of pCILuc complexes; format: in vivo; conditions: for Luciferase RLU/20 μl lysate heart / Luciferase RLU/20 μl lysate kidney / Luciferase RLU/20 μl lysate liver / Luciferase RLU/20 μl lysate lung / Luciferase RLU/20 μl lysate spleen: 40 μg pCILuc i.v., 5 h; for Luciferase activity heart / Luciferase activity kidney / Luciferase activity liver / Luciferase activity lung / Luciferase activity spleen: Table 5
Protocol: Substituted aminoethanols (cationic compounds) were prepared as described in Examples 1-34. Their gene delivery ability was studied in vivo by intravenous injection (Table 1 and 2) using a standard method. The preparations were administered via tail vein injection to mice and gene expression determined after 5 hours. Female CD-1 mice, 13-15 g, were purchased from Charles River Inc. Forty microgram of pCILuc complexed with GC lipids or GC lipid:Chol dispersion as indicated weight ratios. After 5 h, mice were sacrificed and organs were collected. Organs were homogenized in 0.5 ml of lysis buffer and 20 μl of supernatant was used for luciferase assay. Luciferase activity was represented as a mean of relative light unit (RLU) of four mice. The lipids were either used alone or combined with cholesterol and complexed with a luciferase reporter gene plasmid by a standard procedure at a range of weight and charge ratios. For the in vivo screen, 40 μg of pCILuc was complexed with the formulation and injected into the mice.
All compounds were evaluated for in vivo activity. Two critical factors were examined, formulation with or without cholesterol and the ratio of cationic lipid to DNA. Cholesterol was tested at 1:1 mole ratio of lipid:chol. The studies were performed with a dose of 40 μg of pCILuc complexed with cationic lipid or lipid: Chol (1:1 mole ratio) injected i.v. into CD-1 mice and then luciferase activity in different organs determined 5 h later. The first evaluation included all of 14 GC-lipids at weight ratios of 2 and 10 (GC lipid to DNA). It was performed by four separated experiments. Each time cationic liposome DOTAP:Chol was used as a standard control.
Measurements were repeated with lipids GC-030, GC-034 and GC-029 at wider weight ratios than the first experiment. Luciferase activity is represented as a mean of relative light unit (RLU) of four mice. WR means weight ratio of GC lipids to DNA. The transfection activity was represented by luciferase activity RLU/organ. […] The transfection activity increased with the increased weight ratio (GC lipids to DNA). Inclusion of cholesterol can change the biodistribution of gene expression in the different organs examined. […] However this function of cholesterol was not seen with GC-034.

Row | SMILES | Luciferase RLU/20 μl lysate heart ([2]; WR 2) | Luciferase RLU/20 μl lysate kidney ([2]; WR 2) | Luciferase RLU/20 μl lysate liver ([2]; WR 2) | Luciferase RLU/20 μl lysate lung ([2]; WR 2) | Luciferase RLU/20 μl lysate heart ([2]; WR 10) | Luciferase RLU/20 μl lysate kidney ([2]; WR 10) | Luciferase RLU/20 μl lysate liver ([2]; WR 10) | Luciferase RLU/20 μl lysate lung ([2]; WR 10) | Luciferase RLU/20 μl lysate spleen ([2]; WR 10) | Luciferase RLU/20 μl lysate spleen ([2]; WR (lipid to DNA) 2) | other results
1 | CCCCCCCCCCCCCCC(O)CN(CCN)CCCCCCCCNCCCN (centres unmarked) [CGP44207A] | – | – | – | – | – | – | – | – | – | – | Luciferase activity Ave. RLU × 10000/well FBS(+) ([1]; charge ratio (+/−) 0.5): 12 RLU × 10000/well; Luciferase activity Ave. RLU × 10000/well FBS(−) ([1]; charge ratio (+/−) 0.5): 12 RLU × 10000/well; Luciferase activity Ave. RLU × 10000/well FBS(+) ([1]; charge ratio (+/−) 1): 9 RLU × 10000/well; Luciferase activity Ave. RLU × 10000/well FBS(−) ([1]; charge ratio (+/−) 1): 11 RLU × 10000/well; Luciferase activity Ave. RLU × 10000/well FBS(+) ([1]; charge ratio (+/−) 2): 12 RLU × 10000/well; Luciferase activity Ave. RLU × 10000/well FBS(−) ([1]; charge ratio (+/−) 2): 15 RLU × 10000/well; Luciferase activity Ave. RLU × 10000/well FBS(+) ([1]; charge ratio (+/−) 4): 22 RLU × 10000/well; Luciferase activity Ave. RLU × 10000/well FBS(−) ([1]; charge ratio (+/−) 4): 28 RLU × 10000/well; Luciferase activity Ave. RLU × 10000/well FBS(+) ([1]; charge ratio (+/−) 6): 15 RLU × 10000/well; Luciferase activity Ave. RLU × 10000/well FBS(−) ([1]; charge ratio (+/−) 6): 22 RLU × 10000/well; Luciferase activity Ave. RLU × 10000/well FBS(+) ([1]; charge ratio (+/−) 8): 13 RLU × 10000/well; Luciferase activity Ave. RLU × 10000/well FBS(−) ([1]; charge ratio (+/−) 8): 17 RLU × 10000/well
2 | CCCCCCCCCCCCCCCCCCN(CCCCCCCCCCCCCCCCCC)C(=O)[C@H](CSSC[C@H](NC(=O)[C@@H](N)CCCN)C(=O)N(CCCCCCCCCCCCCCCCCC)CCCCCCCCCCCCCCCCCC)NC(=O)[C@@H](N)CCCN.O=C(O)C(F)(F)F.O=C(O)C(F)(F)F.O=C(O)C(F)(F)F.O=C(O)C(F)(F)F [GC-025] | 33 RLU/20 μl lysate | 25 RLU/20 μl lysate | 38 RLU/20 μl lysate | 40 RLU/20 μl lysate | 27 RLU/20 μl lysate | 28 RLU/20 μl lysate | 27 RLU/20 μl lysate | 30 RLU/20 μl lysate | 32 RLU/20 μl lysate | 46 RLU/20 μl lysate | –
3 | CCCCCCCCCCCCCCCCCC(CCCCCCCCCCCCCCCCC)OC(=O)NCCNC(=O)[C@H](CCCNCCCN)NCCCN.O=C(O)C(F)(F)F.O=C(O)C(F)(F)F.O=C(O)C(F)(F)F.O=C(O)C(F)(F)F [GC-029] | 42 RLU/20 μl lysate | 34 RLU/20 μl lysate | 31 RLU/20 μl lysate | 41 RLU/20 μl lysate | 34 RLU/20 μl lysate | 42 RLU/20 μl lysate | 65 RLU/20 μl lysate | 72 RLU/20 μl lysate | 196 RLU/20 μl lysate | 31 RLU/20 μl lysate | Luciferase activity heart ([2]; WR 2): 933 RLU/organ; Luciferase activity kidney ([2]; WR 2): 1,000 RLU/organ; Luciferase activity liver ([2]; WR 2): 825 RLU/organ; Luciferase activity lung ([2]; WR 2): 967 RLU/organ; Luciferase activity spleen ([2]; WR 2): 908 RLU/organ; Luciferase activity heart ([2]; WR 10): 858 RLU/organ; Luciferase activity kidney ([2]; WR 10): 808 RLU/organ; Luciferase activity liver ([2]; WR 10): 1,408 RLU/organ; Luciferase activity lung ([2]; WR 10): 1,017 RLU/organ; Luciferase activity spleen ([2]; WR 10): 1,992 RLU/organ
4 | CCCCCCCCCCCCCCCCCCN(CCCCCCCCCCCCCCCCCC)C(=O)C(CSSCC(NC(=O)C(CCCNCCCN)NCCCN)C(=O)N(CCCCCCCCCCCCCCCCCC)CCCCCCCCCCCCCCCCCC)NC(=O)C(CCCNCCCN)NCCCN.O=C(O)C(F)(F)F.O=C(O)C(F)(F)F.O=C(O)C(F)(F)F.O=C(O)C(F)(F)F.O=C(O)C(F)(F)F.O=C(O)C(F)(F)F.O=C(O)C(F)(F)F.O=C(O)C(F)(F)F (centres unmarked) [GC-026] | 42 RLU/20 μl lysate | 41 RLU/20 μl lysate | 39 RLU/20 μl lysate | 40 RLU/20 μl lysate | 0 RLU/20 μl lysate | 0 RLU/20 μl lysate | 0 RLU/20 μl lysate | 0 RLU/20 μl lysate | 0 RLU/20 μl lysate | 40 RLU/20 μl lysate | –
5 | CC(C)CCC[C@@H](C)[C@H]1CC[C@H]2[C@@H]3CC=C4C[C@@H](OC(=O)NCCNC(=O)[C@@H](N)CCCN)CC[C@]4(C)[C@H]3CC[C@]12C [GC-003] | 37 RLU/20 μl lysate | 38 RLU/20 μl lysate | 33 RLU/20 μl lysate | 37 RLU/20 μl lysate | 39 RLU/20 μl lysate | 40 RLU/20 μl lysate | 73 RLU/20 μl lysate | 69 RLU/20 μl lysate | 65 RLU/20 μl lysate | 36 RLU/20 μl lysate | –

From US20030166601A1, “Novel colloid synthetic vectors for gene therapy” (priority 1999, published 2003)
